[ ]: non-standard residue; d: D form. Bpa = N[C@@H](Cc1ccc(C(=O)c2ccccc2)cc1)C(=O)O; 1Nal = N[C@@H](Cc1cccc2ccccc12)C(=O)O; 2Nal = N[C@@H](Cc1ccc2ccccc2c1)C(=O)O
Experiments:
[1] = target: T1, plasma-derived (pd-) human Factor VIII (FVIII) (Homo sapiens, UniProt P00451); experiment: Binding of 125I-labeled pd-FVIII to peptides immobilized on Toyopearl AF-Epoxy-650M resin (micro-beads assay)
T1 construct: from tissue; host or cells: human blood plasma (FVIII concentrate)
Method: Peptides P1 to P25 were immobilized on the Toyopearl AF-Epoxy-650M resin (Tosoh Biosep) as described by Jungbauer et al. For immobilization, 2.5 mg of each peptide was dissolved in 0.25 mL of the immobilization buffer (0.2 M sodium bicarbonate, pH 10.3), and 0.036 g of the dry resin powder (corresponding to 0.125 mL of swollen resin) was added, followed by incubation of the mixture with gentle rotation for 48 hours. Upon incubation for 48 hours the resin was washed once with immobilization buffer, once with 1 M NaCl and then 3 times with binding buffer, and binding of ^125I-labeled pd-FVIII to the peptide-coated and control resin was tested. The coupling density of each peptide in each of the reported experiments was as mentioned in Table 1. The control 0.25 mL portion of the resin was similarly treated in parallel experiment in the absence of peptide and was subsequently used as a control (designated as Background) in ^125I-pd-FVIII binding experiments. ^125I-pd-FVIII Bound/Background ratios were calculated as the amount of ^125I-pd-FVIII, bound to an immobilized peptide, divided by that bound to uncoated control resin, prepared as described above. This ratio represents a Signal/Noise ratio for the micro-beads assay, since ^125I-pd-FVIII bound to peptide represents the signal value and ^125I-pd-FVIII bound to peptide-uncoated resin represents the background (noise) value.
Plasma-derived (pd-) human Factor VIII (FVIII) was purified from concentrate by immunoaffinity chromatography on an anti-FVIII monoclonal antibody column followed by subsequent concentration of pd-FVIII by ion-exchange chromatography using Resource Q HR5/5 column. To separate FVIII from vWf, concentrate was incubated in 0.35 M NaCl, 0.04 M CaCl2, prior to affinity purification.
Trace amounts of vWf, which are potentially present in pd-FVIII preparation, were removed by passing pd-FVIII preparation through the column with anti-vWf high affinity monoclonal antibody, immobilized at the density 1.4 mg per mL of resin.
Ten μg of purified pd-FVIII were iodinated using lactoperoxidase beads and 0.5 mCi of Na^125I.
The resin with immobilized peptides was washed in the binding buffer (0.01 M Hepes, 0.1 M NaCl, 5 mM CaCl2, 0.01% Tween-80). Subsequently, the resin was diluted in the binding buffer as 1:7 slurry and aliquoted into Eppendorf tubes (40 μl per tube). ^125I-pd-FVIII (100000 cpm in 10 μl) was added to the tubes and the volume of the mixture was adjusted to 100 μl by adding 50 μl of the binding buffer containing 4% BSA to give a 2% final concentration of BSA. After 2 hours of incubation at room temperature on a rotator, the samples were washed 4 times in the binding. After each wash the tubes were centrifuged at 5000 rpm for 1 min in an Eppendorf microcentrifuge, supernatant was discarded, and the resin was re-suspended in the washing buffer, followed by centrifugation under the same conditions. After four washes the tubes with pellet without supernatant were counted for radioactivity. The resin without peptide was processed similarly to account for non-specific pd-FVIII binding to tubes and resin itself, and the radioactivity in this control tube was considered as a background value. Since ^125I-pd-FVIII contains the some fraction damaged during radiolabeling, binding was calculated as a percent of maximal achievable binding, determined in separate experiment with anti-FVIII Mab 8860-coated resin.
All the measurements were performed in duplicates. Each experiment was performed using two independently prepared immobilized peptide samples. The data presented in each figure are the mean values of the four determinations: duplicate determination in the two assays performed with beads on which peptides were independently immobilized on the different days. […]

[2] = target: T2, pd-FVIII (Homo sapiens, UniProt P00451); experiment: Affinity chromatography purification of FVIII on peptide-coated resin column (OD280, one-stage APTT activity); details: P1; Pure fVIII
T2 construct: from tissue; host or cells: human blood plasma (FVIII concentrate)
Method: The peptido-mimetic derivative P22 was immobilized on the Toyopearl resin as described in Example 1. 25 mg of peptide and 360 mg of resin were used. The resulting resin (˜1 ml) was packed in a glass column (Pharmacia-Biotech). The purification procedure was performed using a Waters 650E Advanced Protein Purification System. Buffer A was 0.01 M Hepes, 0.1 M NaCl, 5 mM CaCl2, 0.01% Tween-80 and Buffer B was 0.01 M Hepes, 1 M NaCl, 5 mM CaCl2, 0.01% Tween-80 (pH 6.8). The elution was monitored by a flow-through UV detector (Waters 490 E) by optical density at 280 nm (OD280). The elution fractions were then analyzed for their protein content by determining OD280 and FVIII activity was determined in a one-stage APTT assay using MLA Electra-800 automatic coagulation timer. The samples from elution fractions were analyzed by 10% PAGE followed by silver staining and Western blotting using monoclonal antibodies against FVIII.
FVIII (0.5 mg), previously purified by immunoaffinity and ion-exchange chromatography as described above, was diluted by 0.01 M Hepes, 5 mM CaCl2, 0.01% Tween-80 to a final salt concentration of 0.1 M NaCl. The mixture was applied onto the P22-column, followed by wash with Buffer A, until the OD280 returned to background.
The purification of FVIII was performed from cell-conditioned FBS-containing SF9 media, spiked with FVIII. FVIII (0.5 mg), previously purified by immunoaffinity and ion-exchange chromatography as described above, was mixed with cell-conditioned FBS-containing SF9 media, which was diluted with 0.01 M Hepes, 5 mM CaCl2, 0.01% Tween-80 to a final salt concentration of 0.1 M NaCl. The mixture was applied onto the column, followed by wash with Buffer A, until the OD280 returned to background. The wash with 85% Buffer A 15% Buffer B was performed to elute some of bound contaminating proteins.
Peptide P1 was bonded to the resin as described in Example 1. 25 mg of peptide and 360 mg of resin were used. The resulting resin (˜1 ml) was packed in a glass column (Pharmacia-Biotech). A FVIII containing sample was purified as described with respect to Example 3, the only difference between the two experiments being the absence of a prelusion step with Buffer A in the present experiment.

[3] = target: T2, pd-FVIII; experiment: as above; details: P1; FBS-containing conditioned DMEM spiked with FVIII
[4] = Table 1, 125I-pd-FVIII Bound/Background ratio versus uncoated control resin
[5] = Table 1, immobilized on Toyopearl AF-Epoxy-650M, percent of maximal achievable binding (anti-FVIII Mab 8860-coated resin), mean of four determinations

T1 sequence (P00451 20-1667 limits assumed): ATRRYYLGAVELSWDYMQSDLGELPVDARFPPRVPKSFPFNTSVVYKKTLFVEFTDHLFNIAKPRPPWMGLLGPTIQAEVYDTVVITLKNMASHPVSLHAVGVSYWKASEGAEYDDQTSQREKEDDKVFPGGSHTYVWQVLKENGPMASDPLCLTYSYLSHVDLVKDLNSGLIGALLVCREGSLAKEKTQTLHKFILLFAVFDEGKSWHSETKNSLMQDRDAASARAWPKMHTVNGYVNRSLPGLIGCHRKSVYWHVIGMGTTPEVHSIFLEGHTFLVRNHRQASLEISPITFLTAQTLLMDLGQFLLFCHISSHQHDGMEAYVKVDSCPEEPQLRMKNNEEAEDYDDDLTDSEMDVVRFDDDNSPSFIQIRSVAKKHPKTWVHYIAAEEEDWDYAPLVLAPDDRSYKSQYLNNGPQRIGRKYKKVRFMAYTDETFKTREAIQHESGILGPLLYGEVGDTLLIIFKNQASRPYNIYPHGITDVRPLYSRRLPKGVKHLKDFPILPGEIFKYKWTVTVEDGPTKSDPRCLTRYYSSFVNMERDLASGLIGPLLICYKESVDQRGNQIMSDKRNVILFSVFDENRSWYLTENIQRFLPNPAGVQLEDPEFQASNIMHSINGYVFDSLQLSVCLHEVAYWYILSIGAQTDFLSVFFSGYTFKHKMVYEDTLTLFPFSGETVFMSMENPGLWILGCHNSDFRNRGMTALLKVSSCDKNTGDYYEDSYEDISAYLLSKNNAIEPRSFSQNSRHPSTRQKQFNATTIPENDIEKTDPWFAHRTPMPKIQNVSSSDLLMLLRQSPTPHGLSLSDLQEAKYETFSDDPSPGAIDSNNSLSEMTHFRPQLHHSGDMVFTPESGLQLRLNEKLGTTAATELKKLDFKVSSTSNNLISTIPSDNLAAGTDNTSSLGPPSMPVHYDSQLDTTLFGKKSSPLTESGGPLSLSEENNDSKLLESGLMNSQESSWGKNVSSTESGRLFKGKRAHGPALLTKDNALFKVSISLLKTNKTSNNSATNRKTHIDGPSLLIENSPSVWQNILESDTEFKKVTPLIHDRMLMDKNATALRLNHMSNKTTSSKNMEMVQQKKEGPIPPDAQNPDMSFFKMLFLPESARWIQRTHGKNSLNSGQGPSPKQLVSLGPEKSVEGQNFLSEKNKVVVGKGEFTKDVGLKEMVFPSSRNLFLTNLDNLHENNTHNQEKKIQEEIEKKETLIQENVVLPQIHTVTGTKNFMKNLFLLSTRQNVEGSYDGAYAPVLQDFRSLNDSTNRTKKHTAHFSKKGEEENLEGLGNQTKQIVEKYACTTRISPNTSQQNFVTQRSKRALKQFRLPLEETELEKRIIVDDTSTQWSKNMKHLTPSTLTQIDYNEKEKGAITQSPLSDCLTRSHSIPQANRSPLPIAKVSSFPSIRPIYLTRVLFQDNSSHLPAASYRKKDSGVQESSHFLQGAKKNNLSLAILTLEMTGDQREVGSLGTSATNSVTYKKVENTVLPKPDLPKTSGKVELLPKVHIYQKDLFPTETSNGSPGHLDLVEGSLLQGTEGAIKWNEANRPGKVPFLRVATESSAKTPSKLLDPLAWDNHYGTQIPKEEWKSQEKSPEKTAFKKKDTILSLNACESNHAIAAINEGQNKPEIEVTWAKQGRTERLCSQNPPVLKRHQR
T1 sequence (P00451 1668-2351 limits assumed): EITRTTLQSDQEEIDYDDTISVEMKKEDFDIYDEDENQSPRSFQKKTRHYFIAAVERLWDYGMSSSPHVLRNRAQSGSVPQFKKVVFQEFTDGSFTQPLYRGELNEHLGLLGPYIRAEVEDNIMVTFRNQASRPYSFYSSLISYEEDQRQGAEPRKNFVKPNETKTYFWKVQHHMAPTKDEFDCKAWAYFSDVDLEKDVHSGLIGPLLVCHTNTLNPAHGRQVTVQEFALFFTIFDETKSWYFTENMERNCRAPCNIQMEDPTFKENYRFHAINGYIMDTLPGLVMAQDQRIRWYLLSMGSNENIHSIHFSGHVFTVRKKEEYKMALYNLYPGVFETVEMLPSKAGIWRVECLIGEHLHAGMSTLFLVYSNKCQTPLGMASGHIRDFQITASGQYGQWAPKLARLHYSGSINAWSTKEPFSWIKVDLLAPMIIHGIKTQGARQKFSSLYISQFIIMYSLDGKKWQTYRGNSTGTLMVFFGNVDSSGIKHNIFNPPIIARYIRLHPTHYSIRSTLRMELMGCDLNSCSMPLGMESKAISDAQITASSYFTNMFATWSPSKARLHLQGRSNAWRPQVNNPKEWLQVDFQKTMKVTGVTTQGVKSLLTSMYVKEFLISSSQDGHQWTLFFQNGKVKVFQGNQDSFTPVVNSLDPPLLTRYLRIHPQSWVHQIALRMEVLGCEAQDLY
T2 sequence (P00451 20-1667 limits assumed): as the sequence (P00451 20-1667 limits assumed) above
T2 sequence (P00451 1668-2351 limits assumed): as the sequence (P00451 1668-2351 limits assumed) above

Compound | Binding, rel. to control [1, 4] | % Binding pdFVIII [1, 5] [%] | also measured
ECYYEHWS [scrambled, reference compound] | – | – | % Binding pdFVIII ([1]; Table 2, comparative compound immobilized on Toyopearl AF-Epoxy-650M): 6.5 ± 0.5%; Binding, rel. to control ([1]; Table 2, ratio versus uncoated resin): 4.1 ± 0.3
H-Trp-Glu-Tyr(OMe)-Cys-OH [Compound P10] | 19.0 ± 3.0 | 54.1 ± 8.4 | –
IBA-Asp-Tyr-Cys-OH [Compound P18] | 20.2 ± 2.5 | 57.2 ± 7.2 | –
H-D-Cys-D-Tyr-D-Glu-D-Trp-OH [Compound P7] | 19.8 ± 0.3 | 56.1 ± 0.9 | –
H-Trp-Glu-Phe-Cys-OH (H-WEFC-OH) [Compound P8] | 8.7 ± 0.1 | 24.7 ± 0.1 | –
H-Trp-Glu-Tyr-Gly-Cys-OH (H-WEYGC-OH) [Compound P4] | 27.4 ± 1.3 | 52.7 ± 2.5 | –
H-Trp-Glu-Tyr-Gly-Aha-Cys-OH [Compound P6] | 15.2 ± 0.7 | 43.1 ± 2.0 | –
IPA-Asp-Tyr-Cys-OH [Compound P20] | 21.4 ± 1.4 | 60.7 ± 4.1 | –
H-[Bpa]EYC-OH [Compound P12] | 22.3 ± 0.5 | 57.0 ± 1.39 | –
H-Trp-Glu-Tyr-homo-Cys-OH [Compound P3] | 21.9 ± 1.3 | 38.4 ± 2.3 | –
H-WE[1Nal]C-OH [Compound P9] | 23.8 ± 2.2 | 60.9 ± 5.5 | –
IAA-Asp-Tyr-Cys-OH [Compound P16] | 24.7 ± 0.3 | 70.1 ± 0.8 | –
IPA-Glu-Tyr-Cys-OH [Compound P19] | 18.7 ± 1.7 | 53.2 ± 4.9 | –

Now from value to compound, other results behind:

Binding, rel. to control [1, 4] | % Binding pdFVIII [1, 5] [%] | Compound | also measured
26.1 ± 2.3 | 66.8 ± 5.9 | H-[1Nal]EYC-OH [Compound P13] | –
18.9 ± 2.0 | 53.6 ± 5.7 | Ac-Trp-Glu-Tyr-Cys-NH2 (Ac-WEYC-NH2) [Compound P2] | –
24.7 ± 1.5 | 62.7 ± 3.9 | IBA-Glu-Tyr-Cys-OH [Compound P17] | –
22.7 ± 2.4 | 58.1 ± 6.1 | H-[2Nal]EYC-OH [Compound P14] | –
22.7 ± 0.8 | 53.7 ± 1.9 | O=C(O)CCC(NCCc1c[nH]c2ccccc12)C(=O)NC(Cc1ccc(O)cc1)C(=O)NC(CS)C(=O)O (stereo not shown) [Compound P25] | –
22.2 ± 1.9 | 42.7 ± 2.3 | H-Trp-Glu-Tyr-Aha-Cys-OH [Compound P5] | –
20.9 ± 1.7 | 47.6 ± 4.0 | H-Trp-Glu-Tyr-Cys-OH (H-WEYC-OH) [Compound P1] | Activity, Elution [2]: 552 IU/ml; Activity, Flow-through [2]: 9 IU/ml; OD 280, Elution [2]: 0.108; OD 280, Flow-through [2]: 0.02; Purification, times [2]: 2 times; Activity, Elution [3]: 66 IU/ml; Activity, Flow-through [3]: 6 IU/ml; OD 280, Elution [3]: 0.08; OD 280, Flow-through [3]: 0.49; Purification, times [3]: 13 times
24.7 ± 2.7 | 62.8 ± 6.9 | H-Trp-Asp-Tyr-Cys-OH (H-WDYC-OH) [Compound P11] | –

— patent publication US20090215025A1, “SMALL PEPTIDIC AND PEPTIDO-MIMETIC AFFINITY LIGANDS FOR FACTOR VIII AND FACTOR VIII-LIKE PROTEINS” (TECHNISCHE UNIVERSITAT MUNCHEN, priority 2005, published 2009)
